US5945507A, “Antimicrobial peptides” (University of Pittsburgh, priority 1997, dated 1999)
“Also recorded” adds a separate entry of the source. Where two headings read alike, the source gives them in different places. Bridge positions count the residues as written; N and C are the ends. Ends that are not written are not given here. I, II: the chains in the order shown.

Legend:
[1] = test system: S. aureus; type: cell-based, Staphylococcus aureus; details: for MBC50: in µM; for antibacterial activity (in words): S. aureus
Procedure: Bacterial lysis assay. Bacterial lysis assays were conducted in a manner similar to that described previously (Lehrer, R. I., M. E. Selsted, D. Szklarek, and F. J. 1983. Infect. Immun. 42:10-14, 1983; Miller, M. A., R. F. Garry, J. M. Jaynes, and R. C. Montelaro, AIDS Res Hum Retroviruses 7:511-519, 1991). Bacterial suspensions were cultured in Luria Broth to mid-log growth phase and washed by several cycles of centrifugation and resuspension in 10 mM phosphate buffer. The A600 of the suspension was adjusted with 10 mM phosphate buffer such that, upon dilution, 5-10×10^5 CFU/ml would be treated in the assay. Bacteria were incubated with two-fold dilutions of peptides (32-0.1 μM in 96-well plates in 10 mM phosphate buffer, pH 7.2, for 1 hour. Ten-fold dilutions were performed to a dilution of 1:1000; a 100-μl aliquot from each condition was plated on tryptic soy agar (Difco, Detroit, Mich.) and the plates were incubated overnight. Colonies of surviving bacteria (colony-forming units) were counted and compared to untreated controls to determine the amount of peptide-induced killing under each condition. Log killing is defined as the log of the ratio of CFUs present before and after treatment with peptide. Complete killing is indicated where there were zero colonies per 100-μl aliquot of undiluted bacteria-peptide mixture.
Calculation of MBC. […] The minimal bactericidal concentration, MBC, is the peptide concentration at which 99.9% (3 logs) killing is achieved (Pearson et al., Antimicrob. Agents Chemother. 18:699-708, 1980). The MBC50 is the peptide concentration at which 50% killing is achieved.

[2] = test system: human red blood cells (RBC); type: cell-based; details: for % lysis at 100 μM: erythrocytes, 100 μM peptide; for hemolytic activity (in words): red blood cells; for hemolytic activity: red cells of human, 100 μM
Excerpt: Erythrocyte Lysis Assay. Peptides were screened for hemolytic activity by treating freshly isolated human red blood cells (RBC) with various concentrations of peptides, centrifuging the samples to pellet intact cells, and measuring the amount of hemoglobin in the supernatant to determine the extent of RBC lysis under each condition. The method used is essentially that described by Srinivas et al. (J. Biol. Chem. 267:7121-7127, 1992) with the following modifications: peptide concentrations of 0.1-100 μM were tested, the incubation period was 1 hour at 37° C., and the A570 was measured in duplicate wells of a 96-well plate. A calibration curve was constructed by treating various amounts of red blood cells (0, 20,40, 60, 80, and 100% of the volume of RBC used in test samples) with plain water, which completely lyses the cells. The standard curve was used to calculate the percent lysis at each peptide concentration.

[3] = test system: S. aureus; assay: Kinetics of bacterial killing, S. aureus; type: cell-based, Staphylococcus aureus; details: 10 μM peptide, FIG. 5
Procedure: Kinetics of Bacterial Killing. The time course of the cytolytic activity of a peptide was determined by a modification of the above procedure, where a volume of appropriately diluted bacteria was treated with 1-10 μM peptide; aliquots of this mixture were removed every 10 seconds and diluted 1:2 in 2× Luria Broth; each resulting suspension was subsequently plated on agar as described above. The number of colonies visible upon incubation for each time point was used to calculate a rate of killing by the peptide.

[4] = Table 4, peptide concentration (closest 2-fold dilution) reducing CFU/ml by 50%
[5] = Table 4, peptide concentration (closest 2-fold dilution) reducing CFU/ml by 99.9%, 1 hour
[6] = Table 7, substitution analogs, 50% reduction of CFU/ml
[7] = Table 7, substitution analogs, 99.9% reduction of CFU/ml
[8] = Table 6, truncated analogs, 50% reduction of CFU/ml
[9] = Table 6, truncated analogs, 99.9% reduction of CFU/ml

Substance	MBC50 [1, 6]	MBC [1, 7]	% lysis at 100 μM ([2]; Table 7)	antibacterial activity (in words) [1]	hemolytic activity (in words) [2]	other results
DLWETLRRGGRWILAIPRRIRQGLELTL [SLP1]	–	–	–	–	–	MBC50 [1, 4]: 8; MBC [1, 5]: > 16 µM
FLIRQLIELLTWLFSNCRTLLSEVY [SLP2A1, engineered analog of SLP2A]	> 32	> 32 µM	7%	–	–	–
FLIRQLIRLLTWLFSNCRTLLSRVY [SLP2A, SIVMM239 771-795]	–	–	–	highly active	rather hemolytic	MBC50 [1, 4]: 4; MBC [1, 5]: > 32 µM
GACRAIRHIPRRIR [LP14]	–	–	–	high level of antibacterial activity	virtually no hemolytic activity	MBC50 [1, 8]: 2.5; MBC [1, 9]: 10 µM; hemolytic activity [2]: less than 10%
I: RVIEVVQGACRAIRHIPRRIRQGLERIL / II: RVIEVVQGACRAIRHIPRRIRQGLERIL (disulfide I:10-II:10) [bis-LLP1]	–	–	–	–	–	% lysis at 100 μM ([2]; Table 8): 100%
LLSEVYQILQPILQELSATLQRIREVLR [SLP2B1, engineered analog of SLP2B]	> 32	> 32 µM	10%	–	–	–
LLSRVYQILQPILQRLSATLQRIREVLR [SLP2B, SIVMM239 790-817]	–	–	–	highly active	–	MBC50 [1, 4]: .25; MBC [1, 5]: 1 µM
RIAGYGLRGLAVIIRICIRGLNLIFEIIR [ELP, EIAV 808-836 (Wyoming)]	–	–	–	absence of measurable bactericidal activity; also recorded: little antibacterial activity	high hemolytic activity; also recorded: highly hemolytic	MBC50 [1, 4]: > 10; MBC [1, 5]: > 10 µM
RVIEVVQGACRAIEHIPRRIEQGLERIL [Analog 3, engineered analog of LLP1]	> 80	> 80 µM	< 5%	devoid of activity	devoid of activity	–
RVIEVVQGACRAIEHIPRRIRQGLERIL [Peptide R841E, engineered analog of LLP1]	10-20	40 to 80 µM	30%	reducing both the antibacterial and hemolytic activity	reducing both the antibacterial and hemolytic activity	–
RVIEVVQGACRAIRHIPRRIEQGLERIL [Peptide R848E, engineered analog of LLP1]	20	80 µM	10%	reducing both the antibacterial and hemolytic activity	reducing both the antibacterial and hemolytic activity	–
RVIEVVQGACRAIRHIPRRIR [LP21]	–	–	–	high level of antibacterial activity	virtually no hemolytic activity	MBC50 [1, 8]: 2.5; MBC [1, 9]: 10 µM; hemolytic activity [2]: less than 10%
RVIEVVQGACRAIRHIPRRIRGQLERIL [LLP1-Am, LLP1 with chemically modified cysteine]	–	–	–	–	–	MBC50 ([1]; Table 8, cysteine substitution analogs, 50% reduction of CFU/ml): 5; MBC ([1]; Table 8, cysteine substitution analogs, 99.9% reduction of CFU/ml): 20 µM; % lysis at 100 μM ([2]; Table 8): 15%
RVIEVVQGACRAIRHIPRRIRQGLERIL [LLP1]	–	–	–	–	Below 10 μM very little lysis is observed	killing within one minute [3]: over 99.99%; % lysis at 100 μM ([2]; Table 8): 100%; hemolytic LD50 ([2]; text b508): 20 to 40 µM
RVIEVVQGACRAIRHIPRRSRQGLERIL [Peptide I847S, engineered analog of LLP1]	5	20 µM	< 10%	reduces antibacterial activity	significantly reduced	–
RVIEVVQGACRASRHIPRRIRQGLERIL [Peptide I840S, engineered analog of LLP1]	2.5	10 to 20 µM	< 10%	reduces antibacterial activity	significantly reduced	–
RVIRVVQGACRAIRHIPRRIRQGLRRIL [Analog 5, engineered analog of LLP1]	0.3	2.5 µM	100%	very high antibacterial and hemolytic activity	very high antibacterial and hemolytic activity	–
VVQGACRAIRHIPRRIR [LP17]	–	–	–	high level of antibacterial activity	virtually no hemolytic activity	MBC50 [1, 8]: 5; MBC [1, 9]: 20 µM; hemolytic activity [2]: less than 10%
YHRLRDLLLIVTRIVELLGRR [LLP2, HIVHXB2R 768-788]	–	–	–	highly active	–	MBC50 [1, 4]: 1; MBC [1, 5]: 4 µM
